Tests used:
Plasmodium falciparum [1] = assay: ST_JUDE: Plasmodium falciparum 3D7 EC50 (uM) as measured by SYBR green dye; type: functional, organism-based
Plasmodium falciparum [2] = assay: ST_JUDE: Plasmodium falciparum K1 EC50 (uM) as measured by SYBR green dye; type: functional, organism-based

EC50 (Plasmodium falciparum [1]) [µM]	EC50 (Plasmodium falciparum [2]) [µM]	SMILES
> 15	> 15	CCOC(=O)C(=O)Oc1cc2oc(C(=O)OCC)c(-c3nc4ccccc4s3)c(=O)c2cc1CC
1.83	1.68	O=C(COc1ccccc1)NC(c1ccc(Cl)cc1)c1cc(Cl)c2cccnc2c1O (configuration not stated)
> 15	> 15	O=C(Nc1cccc(F)c1)c1cc2ccccc2oc1=O
1.16	1.21	CCCOc1ccc(-c2nonc2NC(=O)c2cccc(OC)c2)cc1OCCC
0.638	3.01	CN(C)CCn1c(=N)n(CC(O)c2ccc(Cl)c(Cl)c2)c2ccccc21 (configuration not stated)
3.73	6.67	CCOc1ccc(Nc2cc(C)nc3c(C)cc(C)cc23)cc1
0.571	0.682	CC(=O)c1ccc(NC(=O)C2c3ccccc3C(=O)N(CC(C)C)C2c2cccs2)cc1 (configuration not stated)
4.16	4.75	CSc1nc(SC)c2c3c(sc2n1)CN(C)CC3
2.43	1.41	O=C1CC(c2ccc(O)cc2)C2=C(CC(c3ccccc3Cl)CC2=O)N1 (configuration not stated)
1.56	1.44	Cc1ccnc(NC(c2ccc(Cl)cc2Cl)c2ccc3cccnc3c2O)c1 (configuration not stated)
2.92	2.76	Oc1c(C(Nc2ccccn2)c2cccc(Oc3ccccc3)c2)ccc2cccnc12 (configuration not stated)
> 15	> 15	CN(C)CCNc1nc(Cc2ccccc2)nc2sc3c(c12)CCCC3
2.96	4.11	O=C(CSc1nccn1-c1ccc(F)cc1)Nc1cc(C(F)(F)F)ccc1Cl
2.48	1.29	CCOc1ccccc1CN1CCN(Cc2cc(Br)ccc2O)CC1
4.8	5.14	CN(C)CCN(C)C(=O)c1cccc(OC2CCN(Cc3ccccc3O)CC2)c1
2.64	1.15	OC(CN1CCN(Cc2ccccc2)CC1)Cn1c2ccccc2c2ccccc21 (configuration not stated)
5.49	3.1	C[n+]1ccccc1/C=C1\Sc2ccccc2N1CCO
> 15	> 15	CCc1ccc(NC(=O)CN2N=NC3C(=O)N(c4ccc(Br)cc4)C(=O)C32)cc1 (configuration not stated)
2.51	3.55	CCOc1cc(O)c(-c2[nH]nc(C)c2Oc2ccc(F)cc2)cc1CC
7.64	10.4	Cc1ccc(Cn2c(=N)n(CC(=O)c3ccc([N+](=O)[O-])cc3)c3ccccc32)cc1
> 15	> 15	CCCC(=O)N1CCN(c2ccc(NC(=O)c3cccc([N+](=O)[O-])c3)cc2Cl)CC1
> 15	> 15	CCOc1cc(/C=C(\C#N)c2nn(CCO)c(N)c2C#N)cc(I)c1OC

EC50 (Plasmodium falciparum [1]) [µM]	EC50 (Plasmodium falciparum [2]) [µM]	SMILES
2.67	5.39	COc1cccc(C(=O)NC(NC(=S)Nc2ccccc2Cl)C(Cl)(Cl)Cl)c1 (configuration not stated)
1.32	> 15	CC1CC(C)CN(C(=O)c2ccc(Cl)cc2Cl)C1 (configuration not stated)
> 15	> 15	COc1ccccc1CCN1C(=O)CCC1CCNCCOc1ccccc1 (configuration not stated)
> 15	> 15	CCC(C(=O)NCc1ccccc1Cl)n1c2ccccc2c2nc(=O)cc(C)n21 (configuration not stated)
> 15	> 15	O=C(NCc1ccccc1)C1CCC(Cn2c(=O)c3ccccc3n(Cc3cccc(F)c3)c2=O)CC1 (configuration not stated)
> 15	> 15	COCCn1/c(=N/C(=O)COc2ccccc2)sc2cc(OC)ccc21
> 15	> 15	CN(Cc1cccc(OCCNC(=O)c2ccc3c(c2)OCO3)c1)Cc1cccc2cccnc12
> 15	> 15	CCOC(=O)c1c(N)n[nH]c1O
4.85	5.82	CCN(CC)c1ccc(C(NC(=O)C(C)C)c2ccc3cccnc3c2O)cc1 (configuration not stated)
4.53	4.76	CC(C)(C)CNc1cc(N2CCN(C(=O)c3cccs3)CC2)ccc1[N+](=O)[O-]
> 15	4.52	O=C(Nc1ccc2oc(-c3ccccc3)nc2c1)C(Cl)(Cl)Cl
> 15	> 15	COc1cccc(C(=O)Nc2ccc(-c3nnc(-c4ccco4)o3)cc2)c1
1.61	0.558	CCc1ccc(Oc2c(C(F)(F)F)oc3c(CN4CCCCC4)c(O)ccc3c2=O)cc1
1.77	> 15	Cc1ccc(NC(=O)c2csc3c2CCCCC3)c(C)c1
> 15	> 15	COc1cccc(C(=O)NC(c2ccc(C)cc2)c2cc(Cl)c3cccnc3c2O)c1 (configuration not stated)
> 15	> 15	CCCN1CCC(NC(=S)Nc2ccc([N+](=O)[O-])cc2)CC1
3.96	> 15	CN(C)CCNc1c2c(nc3ccccc13)CCC2
> 15	5.45	COc1cccc(NC(=O)Cn2c3ccccc3c(=O)c3cc(Cl)ccc32)c1
1.62	1.75	O=[N+]([O-])c1ccc2ncnc(Nc3cc(Cl)ccc3O)c2c1
> 15	> 15	COc1cc(/C=C(\C#N)c2nc3ccccc3[nH]2)cc(Br)c1OCC#N
4.13	3.66	Cc1ccc2ccc(C(Nc3ccccn3)c3cccc(Cl)c3)c(O)c2n1 (configuration not stated)
> 15	4.96	CC(=O)Nc1ccc(NC(=O)CSc2nn3c(=O)c(C)nnc3s2)cc1

EC50 (Plasmodium falciparum [1]) [µM]	EC50 (Plasmodium falciparum [2]) [µM]	SMILES
5.03	5.39	Cc1ccc2nc(NNC(=O)c3ccc(S(=O)(=O)N(C)C)cc3)sc2c1
> 15	> 15	CCOC(=O)c1ccc2nc(C)c(CN3CCN(C(c4ccccc4)c4ccccc4)CC3)c(O)c2c1
> 15	> 15	CCOC(=O)c1oc2ccccc2c1NC(=O)c1ccc(C)c([N+](=O)[O-])c1
8.04	> 15	COC(=O)C1=CNC=C(C(=O)OC)C1c1ccc(F)c(F)c1
4.39	4.78	COC(=O)c1c(S(=O)(=O)N2CCCC2)sc2c1CCN(CCC(C)c1ccccc1)C2 (configuration not stated)
> 15	> 15	CCc1c(C)nc(-n2nc(C)cc2NC(=O)c2cccc(Br)c2)nc1O
1.22	> 15	Cc1c(Cl)ccc2c(C(=O)Nc3ccc(S(=O)(=O)N4CCOCC4)cc3)cc(-c3cccnc3)nc12
1.43	1.49	CCOc1ccccc1CNC(=O)C1c2ccccc2C(=O)N(CC(C)C)C1c1cccs1 (configuration not stated)
4.46	6.77	CC(C)C(=O)N1CCN(c2ccc([N+](=O)[O-])c(NC3CC3)c2)CC1
> 15	1.58	CC(=O)c1ccc(NC2=C(n3nnc4ccccc43)C(=O)c3ccccc3C2=O)cc1
> 15	5.44	COc1ccc(NC(=O)COc2c(C)cc(Br)cc2C)c(OC)c1
> 15	0.57	O=C(Nc1cccc(Br)c1)c1cc2ccccc2cc1O
0.88	> 15	Oc1c(CN2CCN(c3cccc(Cl)c3)CC2)cc(Br)c2cccnc12
3.09	2.84	CCCc1cc(O)nc(Nc2ccc(Cl)c(C(F)(F)F)c2)n1
1.31	3.72	CN1CCN(c2nc(Nc3ccc(SC(F)F)cc3)c3cnn(-c4ccccc4)c3n2)CC1
11.7	8.29	Cn1c(-c2ccccc2)[n+](C)c2ccccc21
3.75	3.96	COc1ccc(CCNC(=S)Nc2ccccc2C)cc1OC
0.458	2.96	CCN(CC)CCNc1nc(Nc2cccc(OC)c2)c2cnn(-c3ccccc3)c2n1
6.75	3.57	O=C1c2ccccc2/C(=N/Nc2ccc([N+](=O)[O-])cc2)C1c1cc(Br)ccc1[N+](=O)[O-] (configuration not stated)
> 15	> 15	O=C(O)c1ccc(S(=O)(=O)NC2=C/C(=N\S(=O)(=O)c3ccccc3)C(=O)c3ccccc32)cc1
> 15	2.18	CCOC(=O)C1CCN(C(=O)CN(Cc2ccc(Cl)cc2)S(=O)(=O)c2ccc(C)cc2)CC1
> 15	6.73	CC(=O)C1=C(C)NC(SCC(=O)c2cccc([N+](=O)[O-])c2)=C(C#N)C1c1ccc(Cl)cc1 (configuration not stated)

EC50 (Plasmodium falciparum [1]) [µM]	EC50 (Plasmodium falciparum [2]) [µM]	SMILES
> 15	> 15	COc1ccc(C)c2sc(N(Cc3cccnc3)C(=O)c3ccc(C#N)cc3)nc12
> 15	> 15	Cc1cc(N2CCN(C)CC2)nc(N2CCN(C(=O)c3ccc(C(C)(C)C)cc3)CC2)n1
3.75	4.06	CCn1cc(CCCC(=O)NCc2ccc(OC)cc2)c2ccccc21
> 15	> 15	COc1cccc2sc(N(Cc3cccnc3)C(=O)C3CCCCC3)nc12
1.21	1.17	CSCCCN1C(=O)CSC1c1cnccc1-c1ccc(Br)cc1 (configuration not stated)
> 15	> 15	CCN(CC)CCCNc1nc(-c2ccc(Cl)cc2)nc2ccccc12
3.57	2.41	Cc1ccc(O)c(-n2cc3c(c2-c2ccc(C(C)(C)C)cc2)c(=O)n(C)c(=O)n3C)c1
> 15	> 15	Cc1nc2ccccc2c(=O)n1-c1cccc(NC(=O)c2ccc(C(F)(F)F)cc2)c1
> 15	> 15	COc1ccccc1-c1nnc(NC(=O)c2cccc(SC)c2)o1
> 15	5.08	CN(C)c1ccc(Nc2nc(-c3cccnc3)nc3ccccc23)cc1
1.73	3.38	CCc1ccccc1NC(=O)C1c2ccccc2C(=O)N(C2CCCC2)C1c1cccs1 (configuration not stated)
2.22	> 15	CCCc1cc(O)nc(-n2nc(C)cc2NC(=O)c2cccc(C)c2)n1
2.77	> 15	CCOC(=O)c1cnc2ccc(OC)cc2c1NCc1ccccc1
3.2	9.17	Cc1cc(Nc2ccc(F)c(Cl)c2)n2nc(C)nc2n1
> 15	0.483	Cc1ccc(O)c(NC(=O)c2noc3c2CC(C(C)(C)C)CC3)c1 (configuration not stated)
> 15	5.26	C=CCOC(=O)C1=C(C)N=C2CCCC(O)=C2C1c1ccc(OCC)c(OC)c1 (configuration not stated)
3.4	5.25	CCCN(CCC)CCCNC(=S)Nc1ccc2nc(N3CCN(C)CC3)cc(C)c2c1
0.572	0.453	CC[n+]1ccccc1/C=C1\Sc2ccc(C)cc2N1C
2.8	0.469	CC[n+]1c(C=C2C=CN(C)C=C2)ccc2cc(C)ccc21
2.28	3.91	O=[N+]([O-])c1cccc(-c2cn(-c3ccccc3)c3[n+]2CCCS3)c1

From ChEMBL document CHEMBL1154198, “Chemical genetics of Plasmodium falciparum” (Nature, 2010)
